Laboratory results as given in publication PMC5224920, “Assessing the mechanism and therapeutic potential of modulators of the human Mediator complex-associated protein kinases” (eLife, 2016).

Test system: 12 single or co-culture in vitro tissue models of primary cells
Assay: Culture/co-culture cell model panel, extracellular biomarkers (DiscoveRx); on CCL2/MCP-1: reference of the scale not given here; on CXCL8/IL-8: reference of the scale not given here; on CXCL9/MIG: reference of the scale not given here; on M-CSF: reference of the scale not given here; on PBMC Cytotoxicity: reference of the scale not given here; on SRB: reference of the scale not given here; on sTNF-alpha: reference of the scale not given here
Type: cell-based, human
Conditions: for sTNF-alpha / B cell Proliferation / PBMC Cytotoxicity / Secreted IgG / sIL-2 / sIL-6 / sIL-17A / sIL-17F: BT; for CCL2/MCP-1 / CD54/ICAM-1 / CD106/VCAM-1 / CXCL8/IL-8 / CXCL9/MIG / CXCL10/IP-10 / CXCL11/I-TAC / Collagen I / Collagen III / EGFR / M-CSF / MMP-1 / PAI-I / Proliferation_72hr / SRB / TIMP-1 / TIMP-2: HDF3CGF stimulated fibroblasts

Cc1n[nH]c2ncc(C(=O)N3CCC[C@H]3c3ccc(Cl)cc3)cc12 [CMPD4]
sTNF-alpha (1.00E4 nM): 0.086
B cell Proliferation (1.11E3 nM): 0.005
PBMC Cytotoxicity (1.11E3 nM): 0.008
Secreted IgG (1.11E3 nM): -0.271
sIL-2 (1.11E3 nM): -0.010
sIL-6 (1.11E3 nM): 0.011
sIL-17A (1.11E3 nM): 0.280
sIL-17F (1.11E3 nM): -0.402
sTNF-alpha (1.11E3 nM): 0.063
B cell Proliferation (1.23E2 nM): 0.027
PBMC Cytotoxicity (1.23E2 nM): 0.018
Secreted IgG (1.23E2 nM): -0.256
sIL-2 (1.23E2 nM): 0.014
sIL-6 (1.23E2 nM): 0.030
sIL-17A (1.23E2 nM): 0.185
sIL-17F (1.23E2 nM): -0.282
sTNF-alpha (1.23E2 nM): 0.057
B cell Proliferation (1.37E1 nM): -0.012
PBMC Cytotoxicity (1.37E1 nM): 0.011
Secreted IgG (1.37E1 nM): -0.141
sIL-2 (1.37E1 nM): 0.014
sIL-6 (1.37E1 nM): 0.027
sIL-17A (1.37E1 nM): 0.187
sIL-17F (1.37E1 nM): -0.0019
sTNF-alpha (1.37E1 nM): 0.046
B cell Proliferation (3.33E3 nM): -0.018
PBMC Cytotoxicity (3.33E3 nM): -0.00188
Secreted IgG (3.33E3 nM): -0.298
sIL-2 (3.33E3 nM): -0.066
sIL-6 (3.33E3 nM): 0.010
sIL-17A (3.33E3 nM): 0.312
sIL-17F (3.33E3 nM): -0.374
sTNF-alpha (3.33E3 nM): 0.093
B cell Proliferation (3.70E2 nM): -0.072
PBMC Cytotoxicity (3.70E2 nM): -0.003
Secreted IgG (3.70E2 nM): -0.278
sIL-2 (3.70E2 nM): -0.005
sIL-6 (3.70E2 nM): -0.000869
sIL-17A (3.70E2 nM): 0.240
sIL-17F (3.70E2 nM): -0.290
sTNF-alpha (3.70E2 nM): 0.057
B cell Proliferation (4.12E1 nM): -0.040
PBMC Cytotoxicity (4.12E1 nM): -0.011
Secreted IgG (4.12E1 nM): -0.161
sIL-2 (4.12E1 nM): 0.032
sIL-6 (4.12E1 nM): 0.045
sIL-17A (4.12E1 nM): 0.263
sIL-17F (4.12E1 nM): -0.163
sTNF-alpha (4.12E1 nM): 0.025
B cell Proliferation (4.57E0 nM): 0.00188
PBMC Cytotoxicity (4.57E0 nM): 0.009
Secreted IgG (4.57E0 nM): 0.00642
sIL-2 (4.57E0 nM): 0.059
sIL-6 (4.57E0 nM): -0.013
sIL-17A (4.57E0 nM): 0.029
sIL-17F (4.57E0 nM): -0.027
sTNF-alpha (4.57E0 nM): 0.044
CCL2/MCP-1 (1.00E4 nM): -0.062
CD54/ICAM-1 (1.00E4 nM): -0.066
CD106/VCAM-1 (1.00E4 nM): 0.015
CXCL8/IL-8 (1.00E4 nM): -0.071
CXCL9/MIG (1.00E4 nM): -0.035
CXCL10/IP-10 (1.00E4 nM): 0.016
CXCL11/I-TAC (1.00E4 nM): -0.012
Collagen I (1.00E4 nM): 0.017
Collagen III (1.00E4 nM): 0.028
EGFR (1.00E4 nM): -0.096
M-CSF (1.00E4 nM): -0.031
MMP-1 (1.00E4 nM): -0.059
PAI-I (1.00E4 nM): -0.088
Proliferation_72hr (1.00E4 nM): -0.248
SRB (1.00E4 nM): -0.00367
TIMP-1 (1.00E4 nM): -0.111
TIMP-2 (1.00E4 nM): -0.065
CCL2/MCP-1 (1.11E3 nM): -0.100
CD54/ICAM-1 (1.11E3 nM): -0.070
CD106/VCAM-1 (1.11E3 nM): 0.050
CXCL8/IL-8 (1.11E3 nM): -0.111
CXCL9/MIG (1.11E3 nM): -0.045
CXCL10/IP-10 (1.11E3 nM): 0.029
CXCL11/I-TAC (1.11E3 nM): -0.023
Collagen I (1.11E3 nM): -0.003
Collagen III (1.11E3 nM): 0.052
EGFR (1.11E3 nM): -0.103
M-CSF (1.11E3 nM): -0.041
MMP-1 (1.11E3 nM): -0.071
PAI-I (1.11E3 nM): -0.065
Proliferation_72hr (1.11E3 nM): -0.244
SRB (1.11E3 nM): -0.002
TIMP-1 (1.11E3 nM): -0.078
TIMP-2 (1.11E3 nM): 0.064
CCL2/MCP-1 (1.23E2 nM): -0.076
CD54/ICAM-1 (1.23E2 nM): -0.078
CD106/VCAM-1 (1.23E2 nM): 0.069
CXCL8/IL-8 (1.23E2 nM): -0.081
CXCL9/MIG (1.23E2 nM): -0.042
CXCL10/IP-10 (1.23E2 nM): 0.037
CXCL11/I-TAC (1.23E2 nM): -0.032
Collagen I (1.23E2 nM): 0.025
Collagen III (1.23E2 nM): 0.068
EGFR (1.23E2 nM): -0.097
M-CSF (1.23E2 nM): -0.068
MMP-1 (1.23E2 nM): -0.042
PAI-I (1.23E2 nM): -0.031
Proliferation_72hr (1.23E2 nM): -0.191
SRB (1.23E2 nM): 0.024
TIMP-1 (1.23E2 nM): -0.068
TIMP-2 (1.23E2 nM): 0.076
CCL2/MCP-1 (1.37E1 nM): -0.043
CD54/ICAM-1 (1.37E1 nM): -0.058
CD106/VCAM-1 (1.37E1 nM): 0.069
CXCL8/IL-8 (1.37E1 nM): -0.024
CXCL9/MIG (1.37E1 nM): -0.012
CXCL10/IP-10 (1.37E1 nM): 0.038
CXCL11/I-TAC (1.37E1 nM): -0.002
Collagen I (1.37E1 nM): 0.048
Collagen III (1.37E1 nM): 0.094
EGFR (1.37E1 nM): -0.067
M-CSF (1.37E1 nM): -0.052
MMP-1 (1.37E1 nM): 0.006
PAI-I (1.37E1 nM): 0.00043
Proliferation_72hr (1.37E1 nM): -0.130
SRB (1.37E1 nM): 0.016
TIMP-1 (1.37E1 nM): -0.033
TIMP-2 (1.37E1 nM): 0.049
CCL2/MCP-1 (3.33E3 nM): -0.117
CD54/ICAM-1 (3.33E3 nM): -0.064
CD106/VCAM-1 (3.33E3 nM): 0.050
CXCL8/IL-8 (3.33E3 nM): -0.103
CXCL9/MIG (3.33E3 nM): -0.054
CXCL10/IP-10 (3.33E3 nM): 0.032
CXCL11/I-TAC (3.33E3 nM): -0.022
Collagen I (3.33E3 nM): 0.006
Collagen III (3.33E3 nM): 0.051
EGFR (3.33E3 nM): -0.111
M-CSF (3.33E3 nM): -0.031
MMP-1 (3.33E3 nM): -0.057
PAI-I (3.33E3 nM): -0.062
Proliferation_72hr (3.33E3 nM): -0.194
SRB (3.33E3 nM): -0.008
TIMP-1 (3.33E3 nM): -0.075
TIMP-2 (3.33E3 nM): -0.041
CCL2/MCP-1 (3.70E2 nM): -0.066
CD54/ICAM-1 (3.70E2 nM): -0.075
CD106/VCAM-1 (3.70E2 nM): 0.067
CXCL8/IL-8 (3.70E2 nM): -0.100
CXCL9/MIG (3.70E2 nM): -0.034
CXCL10/IP-10 (3.70E2 nM): 0.040
CXCL11/I-TAC (3.70E2 nM): -0.017
Collagen I (3.70E2 nM): 0.018
Collagen III (3.70E2 nM): 0.066
EGFR (3.70E2 nM): -0.123
M-CSF (3.70E2 nM): -0.056
MMP-1 (3.70E2 nM): -0.053
PAI-I (3.70E2 nM): -0.013
Proliferation_72hr (3.70E2 nM): -0.187
SRB (3.70E2 nM): 0.021
TIMP-1 (3.70E2 nM): -0.069
TIMP-2 (3.70E2 nM): 0.123
CCL2/MCP-1 (4.12E1 nM): -0.141
CD54/ICAM-1 (4.12E1 nM): -0.066
CD106/VCAM-1 (4.12E1 nM): 0.066
CXCL8/IL-8 (4.12E1 nM): -0.049
